# From PubChem BioAssay (NCI)
#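 The compound was tested at five concentrations on cells cultured in 96-well plates, with a 48-hour exposure period. TGI is the concentration that stops growth completely.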
# Key:
# Experiment in all cases: growth of human tumour cells (NCI), 48 h
# IGROV1 ovarian = test system: IGROV1 ovarian
# SW-620 colon = test system: SW-620 colon
# OVCAR-5 ovarian = test system: OVCAR-5 ovarian
# HS 578T breast = test system: HS 578T breast
# KM12 colon = test system: KM12 colon
# COLO 205 colon = test system: COLO 205 colon
# A498 renal = test system: A498 renal
# HT29 colon = test system: HT29 colon
# SN12C renal = test system: SN12C renal
# HCC-2998 colon = test system: HCC-2998 colon
# CAKI-1 renal = test system: CAKI-1 renal
# NCI-H522 lung = test system: NCI-H522 lung
# SK-MEL-5 melanoma = test system: SK-MEL-5 melanoma
# NCI-H226 lung = test system: NCI-H226 lung
# UO-31 renal = test system: UO-31 renal
# EKVX NSCLC = test system: EKVX NSCLC
# BT-549 breast = test system: BT-549 breast
# OVCAR-8 ovarian = test system: OVCAR-8 ovarian
# SF-539 CNS = test system: SF-539 CNS
# M14 melanoma = test system: M14 melanoma
SMILES,TGI (IGROV1 ovarian) [µM],TGI (SW-620 colon) [µM],TGI (OVCAR-5 ovarian) [µM],TGI (HS 578T breast) [µM],TGI (KM12 colon) [µM],TGI (COLO 205 colon) [µM],TGI (A498 renal) [µM],TGI (HT29 colon) [µM],TGI (SN12C renal) [µM],TGI (HCC-2998 colon) [µM],TGI (CAKI-1 renal) [µM],TGI (NCI-H522 lung) [µM],TGI (SK-MEL-5 melanoma) [µM],TGI (NCI-H226 lung) [µM],TGI (UO-31 renal) [µM],TGI (EKVX NSCLC) [µM],TGI (BT-549 breast) [µM],TGI (OVCAR-8 ovarian) [µM],TGI (SF-539 CNS) [µM],TGI (M14 melanoma) [µM]
O=C1N/C(=N\N=C\c2ccccc2)C2(CCCCC2)O1,> 100,> 100,> 100,> 100,> 100,> 100,> 100,> 100,> 100,> 100,> 100,> 100,> 100,> 100,> 100,> 100,> 100,> 100,> 100,> 100
CNn1c(-c2ccc(C)cc2)n[nH]c1=O,> 100,> 100,> 100,> 100,> 100,> 100,> 100,> 100,> 100,> 100,> 100,> 100,> 100,> 100,> 100,> 100,> 100,> 100,> 100,> 100
COc1cccc(/C=C2\SC(=S)N(/C=C3\C(=O)Oc4ccccc4C3=O)C2=O)c1O,> 100,> 100,> 100,82.3,> 100,> 100,48,> 100,> 100,87,> 100,> 100,> 100,> 100,48.2,> 100,55.6,> 100,83.2,> 100
Cc1cc(N(CCC#N)CCC#N)ccc1/C=C(\NC(=O)/C=C/c1ccccc1)C(=O)Nc1ccc(Cl)cc1,> 100,> 100,> 100,> 100,> 94,12.7,> 100,> 100,> 100,> 58.7,98,> 100,5.95,> 100,> 100,> 100,> 100,> 100,> 100,> 100
